Measured values reported in patent publication US8889671B2, “Compounds and methods for treating bacterial infections” (AstraZeneca AB, priority 2013, dated 2014).
pIC50: −log10 of the molar value. Converted amounts (≈) assume the structure as drawn. Read-outs that look alike come from different tables or passages of the source.

Tests used:
Escherichia coli = test: Susceptibility testing (MIC) Assay 2, broth microdilution; format: cell-based; details: K12, read-out: Eco MIC
Procedure: (§1) Minimum Inhibitory Concentrations (MICs) were determined by the broth microdilution method in accordance with the Clinical and Laboratory Standards Institute (CLSI) guidelines. In brief, organism suspensions were adjusted to a 0.5 McFarland standard to yield a final inoculum between 3×10^5 and 7×10^5 colony-forming units (CFU)/mL. Bacterial inocula were generally prepared in sterile, cation adjusted Mueller-Hinton Broth (Becton Dickinson) which included Escherichia coli, Klebsiella pneumoniae, and Pseudomonas aeruginosa. Haemophilus influenzae bacterial inocula were prepared in sterile, cation adjusted Mueller-Hinton Broth (Becton Dickinson) containing 0.5% yeast extract (Becton Dickinson) plus 30 mL of 15 μg/mL Bovine Hematin stock (Sigma), and 3 mL of 15 μg/mL β-nicotinamide adenine dinucleotide (Sigma). Strains of Neisseria were tested for MICs using agar dilution methodology in accordance with CLSI guidelines. For broth microdilution testing, an inoculum volume of 100 μL was added to wells (using a Tecan EVO robot) containing 2 μL of DMSO containing 2-fold serial dilutions of drug. All inoculated microdilution panels were incubated in ambient air at 35° C. for 18-24 hours. Following incubation, the lowest concentration of the drug that prevented visible growth as read at OD600 nm and confirmed by a visual read using a test reading mirror was recorded as the MIC. Performance of the assay was monitored by the use of laboratory quality-control strains and commercially available control compounds with defined MIC spectrums, in accordance with CLSI guidelines. Table 3 provides the MIC results (μM) of Examples 1-77 tested in Assay 2. Table 4 provides the MIC (μg/mL) results of Examples 78-80 tested in Assay 2.

Klebsiella pneumoniae = test: as above; format: cell-based; details: clinical isolate, mucoid, read-out: Kpn MIC
Procedure: as §1

Haemophilus influenzae = test: as above; format: cell-based; details: ATCC 51907, in vivo strain, read-out: Hin MIC
Procedure: as §1

Pseudomonas aeruginosa = test: as above; format: cell-based; details: for MIC: PAO1, read-out: Pae MIC
Procedure: as §1

[1] = molecular target: Escherichia coli DNA gyrase A/B tetramer (Escherichia coli (strain K12), UniProt P0AES4+P0AES6); test: DNA gyrase supercoiling activity fluorescence polarisation assay; format: biochemical; details: Eco Gyr FP Mean IC50, E. coli DNA gyrase supercoiling, 0.3 mM ATP
Procedure: In a black, 384-well polystyrene assay plate, 30 microliters/well of 5 nM Escherichia coli DNA gyrase A/B tetramer and 130 micrograms/mL of topologically relaxed plasmid containing the triplex-forming sequence
in an assay buffer consisting of 35 mM Tris-HCl (pH 7.5), 24 mM KCl, 4 mM MgCl2, 2 mM dithiothreitol, 1.8 mM spermidine, 5% (v/v) glycerol, 200 nM bovine serum albumin, 0.8% dimethylsulfoxide, and 0.3 mM ATP were incubated at ambient temperature for (typically 30 minutes) in the absence or presence of 5-10 different concentrations of test compound. The supercoiling reactions were quenched by the addition of 10 microliters/well of 40 nM oligodeoxynucleotide probe in 3× triplex-forming buffer consisting of 150 mM NaCl, and 150 mM sodium acetate at pH 3.5. The oligodeoxynucleotide probe was 5′-BODIPY-FL-labeled
After 60 minutes, the fluorescence anisotropy of the BODIPY-FL was measured in a Tecan Ultra plate reader, using 485 nm excitation and 535 nm emission filters equipped with polarizers. The IC50 was determined by nonlinear regression using two control reactions.

Staphylococcus aureus = test: Susceptibility testing (MIC) Assay 1, broth microdilution; format: cell-based
Procedure: (§2) Minimum Inhibitory Concentrations (MICs) were determined by the broth microdilution method in accordance with the Clinical and Laboratory Standards Institute (CLSI) guidelines. In brief, organism suspensions were adjusted to a 0.5 McFarland standard to yield a final inoculum between 3×10^5 and 7×10^5 colony-forming units (CFU)/mL. Bacterial inocula were prepared for most organisms in sterile, cation adjusted Mueller-Hinton Broth (Beckton Dickinson). The streptococci were prepared as above in cation adjusted Mueller-Hinton Broth to which 2.5% lysed horse blood (Hema Resource & Supply Inc.) was added. An inoculum volume of 100 μL was added to wells (using a Tecan EVO robot) containing 2 μL of DMSO containing 2-fold serial dilutions of drug. All inoculated microdilution trays were incubated in ambient air at 35° C. for 18-24 hours. Following incubation, the lowest concentration of the drug that prevented visible growth as read at OD600 nm and confirmed by a visual read using a test reading mirror was recorded as the MIC. Performance of the assay was monitored by the use of laboratory quality-control strains and commercially available control compounds with defined MIC spectrums, in accordance with CLSI guidelines. Table 1 provides the MIC results (μM) of Examples 1-77 tested in Assay 1. Table 2 provides the MIC (μg/mL) results of Examples 78-80 tested in Assay 1.

Streptococcus pyogenes = test: as above; format: cell-based; details: Streptococcus pyrgenes, in vivo strain, read-out: Spy MIC
Procedure: as §2

Streptococcus pneumoniae = test: as above; format: cell-based
Procedure: as §2

[2] = ATCC51907, Haemophilus influenzae
[3] = Staphylococcus aureus, Staphylococcus aureus in vivo strain, MSQS, read-out: Sau(d) MIC
[4] = Staphylococcus aureus, in vivo strain, MRQR, read-out: Sau(e) MIC
[5] = Staphylococcus aureus, serum, read-out: Sau(f) MIC
[6] = in vivo strain (footnote b), read-out: Spn(b) MIC
[7] = in vivo strain (footnote c), read-out: Spn(c) MIC

SMILES	MIC (Escherichia coli) [µM]	MIC (Klebsiella pneumoniae) [µM]	MIC (Haemophilus influenzae; [2]) [µM]	MIC (Pseudomonas aeruginosa) [µM]	pIC50 [1]	MIC (Staphylococcus aureus; [3]) [µM]	MIC (Staphylococcus aureus; [4]) [µM]	MIC (Staphylococcus aureus; [5]) [µM]	MIC (Streptococcus pyogenes; Streptococcus pyogenes) [µM]	MIC (Streptococcus pneumoniae; [6]) [µM]	MIC (Streptococcus pneumoniae; [7]) [µM]	MIC (Haemophilus influenzae) [µM]	Pae MIC (Pseudomonas aeruginosa; PAO1) [µM]	MIC (Staphylococcus aureus; Staphylococcus aureus in vivo strain, MSQS, read-out: Sau(d) MIC) [µM]	MIC (Streptococcus pyogenes) [µM]
C[C@@H]1CN2c3c(cc4c(N5CC(C)(C)OC5=O)noc4c3F)CC3(C(=O)NC(=O)NC3=O)[C@H]2[C@H](C)O1 (racemic) [Example 12, (2R,4S,4aS)-8-(5,5-Dimethyl-2-oxo-1,3-oxazolidin-3-yl)-11-fluoro-2,4-dimethyl-1,2,4,4a-tetrahydro-2′H,6H-spiro[1,4-oxazino[4,3-a][1,2]oxazolo[4,5-g]quinoline-5,5′-pyrimidine]-2′,4′,6′(1′H,3′H)-trione]	100 (≈ 50.1 µg/mL)	> 200	3.1 (≈ 1.55 µg/mL)	> 200	5.49	1.6 (≈ 0.802 µg/mL)	3.1 (≈ 1.55 µg/mL)	25 (≈ 12.5 µg/mL)	3.1 (≈ 1.55 µg/mL)	6.2 (≈ 3.11 µg/mL)	6.2 (≈ 3.11 µg/mL)				
COC[C@H]1COC(=O)N1c1noc2c(F)c3c(cc12)CC1(C(=O)NC(=O)NC1=O)[C@H]1[C@H](C)O[C@H](C)CN31 (single isomer, unassigned) [Example 17]	50 (≈ 25.9 µg/mL)	> 200	0.39 (≈ 0.202 µg/mL)	> 200	6.85	0.28 (≈ 0.145 µg/mL)	0.78 (≈ 0.404 µg/mL)	0.39 (≈ 0.202 µg/mL)	0.55 (≈ 0.285 µg/mL)	0.55 (≈ 0.285 µg/mL)	0.55 (≈ 0.285 µg/mL)				
COC[C@H]1COC(=O)N1c1noc2c(F)c3c(cc12)CC1(C(=O)NC(=O)NC1=O)[C@H]1[C@H](C)O[C@H](C)CN31 (single isomer, unassigned) [Example 67]	25 (≈ 12.9 µg/mL)	>200			6.48		0.55 (≈ 0.285 µg/mL)	0.55 (≈ 0.285 µg/mL)		0.4 (≈ 0.207 µg/mL)	0.55 (≈ 0.285 µg/mL)	0.55 (≈ 0.285 µg/mL)	>200	0.28 (≈ 0.145 µg/mL)	0.28 (≈ 0.145 µg/mL)
C[C@@H]1CN2c3c(cc4c(N5CCOC5=O)noc4c3F)CC3(C(=O)NC(=O)NC3=O)[C@H]2[C@H](C)O1 [Example 1, (2R,4S,4aS)-11-Fluoro-2,4-dimethyl-8-(2-oxo-1,3-oxazolidin-3-yl)-1,2,4,4a-tetrahydro-2′H,6H-spiro[1,4-oxazino[4,3-a][1,2]oxazolo[4,5-g]quinoline-5,5′-pyrimidine]-2′,4′,6′(1′H,3′H)-trione]	50 (≈ 23.7 µg/mL)	> 200	0.78 (≈ 0.369 µg/mL)	> 200	5.89	0.39 (≈ 0.185 µg/mL)	3.1 (≈ 1.47 µg/mL)	0.78 (≈ 0.369 µg/mL)	0.39 (≈ 0.185 µg/mL)	0.78 (≈ 0.369 µg/mL)	0.78 (≈ 0.369 µg/mL)				
C[C@@H]1CN2c3c(cc4c(N5C(=O)OC[C@H]5C)noc4c3F)CC3(C(=O)NC(=O)NC3=O)[C@H]2[C@H](C)O1 [Example 2, (2R,4S,4aS)-11-Fluoro-2,4-dimethyl-8-[(4R)-4-methyl-2-oxo-1,3-oxazolidin-3-yl]-1,2,4,4a-tetrahydro-2′H,6H-spiro[1,4-oxazino[4,3-a][1,2]oxazolo[4,5-g]quinoline-5,5′-pyrimidine]-2′,4′,6′(1′H,3′H)-trione]	100 (≈ 48.7 µg/mL)	> 200	1.6 (≈ 0.78 µg/mL)	> 200	5.57	3.1 (≈ 1.51 µg/mL)	12 (≈ 5.85 µg/mL)	6.2 (≈ 3.02 µg/mL)	3.1 (≈ 1.51 µg/mL)	12 (≈ 5.85 µg/mL)	3.1 (≈ 1.51 µg/mL)				
C[C@@H]1CN2c3c(cc4c(N5C[C@H](C)OC5=O)noc4c3F)CC3(C(=O)NC(=O)NC3=O)[C@H]2[C@H](C)O1 [Example 3, (2R,4S,4aS)-11-Fluoro-2,4-dimethyl-8-[(5S)-5-methyl-2-oxo-1,3-oxazolidin-3-yl]-1,2,4,4a-tetrahydro-2′H,6H-spiro[1,4-oxazino[4,3-a][1,2]oxazolo[4,5-g]quinoline-5,5′-pyrimidine]-2′,4′,6′(1′H,3′H)-trione]	50 (≈ 24.4 µg/mL)	> 200	1.6 (≈ 0.78 µg/mL)	> 200	5.84	0.39 (≈ 0.19 µg/mL)	1.6 (≈ 0.78 µg/mL)	1.6 (≈ 0.78 µg/mL)	0.78 (≈ 0.38 µg/mL)	1.6 (≈ 0.78 µg/mL)	1.6 (≈ 0.78 µg/mL)				
C[C@@H]1CN(c2noc3c(F)c4c(cc23)CC2(C(=O)NC(=O)NC2=O)[C@H]2[C@H](C)O[C@H](C)CN42)C(=O)O1 [Example 4, (2R,4S,4aS)-11-Fluoro-2,4-dimethyl-8-[(5R)-5-methyl-2-oxo-1,3-oxazolidin-3-yl]-1,2,4,4a-tetrahydro-2′H,6H-spiro[1,4-oxazino[4,3-a][1,2]oxazolo[4,5-g]quinoline-5,5′-pyrimidine]-2′,4′,6′(1′H,3′H)-trione]	9.9 (≈ 4.83 µg/mL)	200 (≈ 97.5 µg/mL)	0.47 (≈ 0.229 µg/mL)	> 200	6.41	0.25 (≈ 0.122 µg/mL)	0.67 (≈ 0.327 µg/mL)	0.47 (≈ 0.229 µg/mL)	0.36 (≈ 0.175 µg/mL)	0.42 (≈ 0.205 µg/mL)	0.46 (≈ 0.224 µg/mL)				
CC[C@H]1COC(=O)N1c1noc2c(F)c3c(cc12)CC1(C(=O)NC(=O)NC1=O)[C@H]1[C@H](C)O[C@H](C)CN31 [Example 6, (2R,4S,4aS)-8-[(4S)-4-Ethyl-2-oxo-1,3-oxazolidin-3-yl]-11-fluoro-2,4-dimethyl-1,2,4,4a-tetrahydro-2′H,6H-spiro[1,4-oxazino[4,3-a][1,2]oxazolo[4,5-g]quinoline-5,5′-pyrimidine]-2′,4′,6′(1′H,3′H)-trione]	100 (≈ 50.1 µg/mL)	121 (≈ 60.7 µg/mL)	3.1 (≈ 1.55 µg/mL)	> 200	5.48	1.6 (≈ 0.802 µg/mL)	6.2 (≈ 3.11 µg/mL)	12 (≈ 6.02 µg/mL)	3.1 (≈ 1.55 µg/mL)	6.2 (≈ 3.11 µg/mL)	3.1 (≈ 1.55 µg/mL)				
CC[C@@H]1COC(=O)N1c1noc2c(F)c3c(cc12)CC1(C(=O)NC(=O)NC1=O)[C@H]1[C@H](C)O[C@H](C)CN31 [Example 7]	200 (≈ 100 µg/mL)	> 200	12 (≈ 6.02 µg/mL)	> 200	5.01	6.2 (≈ 3.11 µg/mL)	12 (≈ 6.02 µg/mL)	25 (≈ 12.5 µg/mL)	6.2 (≈ 3.11 µg/mL)	25 (≈ 12.5 µg/mL)	12 (≈ 6.02 µg/mL)				
C[C@@H]1CN2c3c(cc4c(N5C(=O)OC[C@H]5c5ccccc5)noc4c3F)CC3(C(=O)NC(=O)NC3=O)[C@H]2[C@H](C)O1 [Example 8, (2R,4S,4aS)-11-Fluoro-2,4-dimethyl-8-[(4R)-2-oxo-4-phenyl-1,3-oxazolidin-3-yl]-1,2,4,4a-tetrahydro-2′H,6H-spiro[1,4-oxazino[4,3-a][1,2]oxazolo[4,5-g]quinoline-5,5′-pyrimidine]-2′,4′,6′(1′H,3′H)-trione]	> 200	> 200	12 (≈ 6.59 µg/mL)	> 200	5.14	6.2 (≈ 3.41 µg/mL)	12 (≈ 6.59 µg/mL)	200 (≈ 110 µg/mL)	12 (≈ 6.59 µg/mL)	50 (≈ 27.5 µg/mL)	50 (≈ 27.5 µg/mL)				
